Results published in ChEMBL document CHEMBL5576121, “Halogen Bonding Hot Spots as a Constraint in Virtual Screening: A Case Study of 5-HT7R” (J Med Chem, 2024).

biological target: 5-hydroxytryptamine receptor 7 (Homo sapiens, UniProt P34969); test: Displacement of [3H]-5-CT from human 5-HT7b receptor expressed in HEK293 cell membranes incubated for 1 hr by Microbeta Topcount instrument based analysis
Sequence (P34969 whole entry): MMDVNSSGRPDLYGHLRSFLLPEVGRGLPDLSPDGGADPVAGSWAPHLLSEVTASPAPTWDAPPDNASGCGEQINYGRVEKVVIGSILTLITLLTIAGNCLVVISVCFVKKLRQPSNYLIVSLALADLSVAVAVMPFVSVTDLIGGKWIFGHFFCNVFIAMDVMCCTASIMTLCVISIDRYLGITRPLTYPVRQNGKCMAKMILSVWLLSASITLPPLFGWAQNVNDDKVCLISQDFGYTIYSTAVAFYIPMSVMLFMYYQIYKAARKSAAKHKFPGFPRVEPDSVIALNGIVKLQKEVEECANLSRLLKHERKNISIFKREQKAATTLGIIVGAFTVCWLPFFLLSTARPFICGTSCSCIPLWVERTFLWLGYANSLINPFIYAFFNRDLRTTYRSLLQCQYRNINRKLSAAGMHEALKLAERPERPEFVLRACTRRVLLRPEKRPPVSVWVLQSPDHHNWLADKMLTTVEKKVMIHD

In order of rising Ki:
1. COc1ccc(OC)c(COCC(O)CN2CCN(c3cccc(Cl)c3)CC2)c1 (stereo not drawn)  65 nM
2. OC(COc1ccc2c(c1)CCC2)CN1CCN(c2cccc(Cl)c2)CC1 (stereo not drawn)  285 nM
3. CCCc1ccc(OCC(O)CN2CCN(c3cccc(Cl)c3)CC2)cc1 (stereo not drawn)  360 nM
4. CC(=O)c1ccc(OCC(O)CN2CCN(c3cccc(Cl)c3)CC2)cc1 (stereo not drawn)  471 nM
5. OC(COc1ccc2c(c1)CCC2)CN1CCN(c2ccccc2)CC1 (stereo not drawn)  587 nM
6. CCC(=O)N1c2ccccc2CC1C(=O)NCCCN1CCN(c2cccc(Cl)c2)CC1 (stereo not drawn)  687 nM
7. CCCc1ccc(OCC(O)CN2CCN(c3ccccc3)CC2)cc1 (stereo not drawn)  1090 nM
8. OC(COc1ccc2c(c1)CCC2)CN1CCN(c2ccc(Cl)cc2)CC1 (stereo not drawn)  1520 nM
9. CC(=O)c1ccc(OCC(O)CN2CCN(c3ccccc3)CC2)cc1 (stereo not drawn)  1970 nM
10. COc1ccc(OC)c(COCC(O)CN2CCN(c3ccccc3)CC2)c1 (stereo not drawn)  2300 nM
11. CC(=O)c1ccc(OCC(O)CN2CCN(c3ccccc3Cl)CC2)cc1 (stereo not drawn)  4670 nM
12. CCC(=O)N1c2ccccc2CC1C(=O)NCCCN1CCN(c2ccccc2)CC1 (stereo not drawn)  7130 nM
13. CC(=O)c1ccc(OCC(O)CN2CCN(c3ccc(Cl)cc3)CC2)cc1 (stereo not drawn)  7130 nM
